Test results as given in ChEMBL document CHEMBL6096706, “Discovery of WDR5-MLL1 and HDAC Dual-Target Inhibitors for the Treatment of Acute Myeloid Leukemia” (J Med Chem, 2025).

Columns and labels:
MV4-11 [1] = test: Antiproliferative activity against human MV4-11 cells assessed as growth inhibition at 0.2 uM measured after 72 hrs in presence of 0.2 uM of vorinostat by CellTiterGlo assay; assay type: functional; conditions: read-out: GI
MV4-11 [2] = test: Antiproliferative activity against human MV4-11 cells assessed as growth inhibition at 0.05 uM measured after 72 hrs in presence of 0.05 uM of vorinostat by CellTiterGlo assay; assay type: functional; conditions: read-out: GI
MV4-11 [3] = test: Antiproliferative activity against human MV4-11 cells assessed as growth inhibition at 0.4 uM measured after 72 hrs in presence of 0.5 uM of vorinostat by CellTiterGlo assay; assay type: functional; conditions: read-out: GI
MV4-11 [4] = test: Antiproliferative activity against human MV4-11 cells assessed as growth inhibition at 0.05 uM measured after 72 hrs in presence of 1 uM of vorinostat by CellTiterGlo assay; assay type: functional; conditions: read-out: GI
MV4-11 [5] = test: Antiproliferative activity against human MV4-11 cells assessed as growth inhibition at 0.2 uM measured after 72 hrs in presence of 0.4 uM of vorinostat by CellTiterGlo assay; assay type: functional; conditions: read-out: GI
MV4-11 [6] = test: Antiproliferative activity against human MV4-11 cells assessed as growth inhibition at 2 uM measured after 72 hrs in presence of 0.5 uM of vorinostat by CellTiterGlo assay; assay type: functional; conditions: read-out: GI
MV4-11 [7] = test: Antiproliferative activity against human MV4-11 cells assessed as growth inhibition at 0.4 uM measured after 72 hrs in presence of 0.1 uM of vorinostat by CellTiterGlo assay; assay type: functional; conditions: read-out: GI
MV4-11 [8] = test: Induction of apoptosis in human MV4-11 cells assessed as early apoptotic cells at 400 nM incubated for 72 hrs in presence of vorinostat by Annexin V/PI staining based flow cytometry analysis (reference value: 0.76 %); assay type: functional
MV4-11 [9] = test: Antiproliferative activity against human MV4-11 cells assessed as growth inhibition at 0.5 uM measured after 72 hrs by CellTiterGlo assay; assay type: functional; conditions: read-out: GI
MV4-11 [10] = test: Antiproliferative activity against human MV4-11 cells assessed as growth inhibition at 1 uM measured after 72 hrs in presence of 0.2 uM of vorinostat by CellTiterGlo assay; assay type: functional; conditions: read-out: GI
MV4-11 [11] = test: Induction of apoptosis in human MV4-11 cells assessed as late apoptotic cells at 600 nM incubated for 72 hrs in presence of vorinostat by Annexin V/PI staining based flow cytometry analysis (reference value: 6.42 %); assay type: functional
MV4-11 [12] = test: Induction of apoptosis in human MV4-11 cells assessed as late apoptotic cells at 400 nM incubated for 72 hrs in presence of vorinostat by Annexin V/PI staining based flow cytometry analysis (reference value: 6.42 %); assay type: functional
MV4-11 [13] = test: Antiproliferative activity against human MV4-11 cells assessed as growth inhibition at 0.1 uM measured after 72 hrs in presence of 0.5 uM of vorinostat by CellTiterGlo assay; assay type: functional; conditions: read-out: GI
MV4-11 [14] = test: Antiproliferative activity against human MV4-11 cells assessed as growth inhibition at 0.2 uM measured after 72 hrs in presence of 1 uM of vorinostat by CellTiterGlo assay; assay type: functional; conditions: read-out: GI
MV4-11 [15] = test: Antiproliferative activity against human MV4-11 cells assessed as growth inhibition at 0.4 uM measured after 72 hrs in presence of 0.4 uM of vorinostat by CellTiterGlo assay; assay type: functional; conditions: read-out: GI
MV4-11 [16] = test: Antiproliferative activity against human MV4-11 cells assessed as growth inhibition at 0.2 uM measured after 72 hrs in presence of 0.1 uM of vorinostat by CellTiterGlo assay; assay type: functional; conditions: read-out: GI
MV4-11 [17] = test: Antiproliferative activity against human MV4-11 cells assessed as growth inhibition at 0.4 uM measured after 72 hrs in presence of 0.2 uM of vorinostat by CellTiterGlo assay; assay type: functional; conditions: read-out: GI
MV4-11 [18] = test: Antiproliferative activity against human MV4-11 cells assessed as growth inhibition at 0.1 uM measured after 72 hrs in presence of 0.1 uM of vorinostat by CellTiterGlo assay; assay type: functional; conditions: read-out: GI
MV4-11 [19] = test: Antiproliferative activity against human MV4-11 cells assessed as growth inhibition at 0.05 uM measured after 72 hrs by CellTiterGlo assay; assay type: functional; conditions: read-out: GI
MV4-11 [20] = test: Antiproliferative activity against human MV4-11 cells assessed as growth inhibition at 1 uM measured after 72 hrs in presence of 0.05 uM of vorinostat by CellTiterGlo assay; assay type: functional; conditions: read-out: GI
MV4-11 [21] = test: Antiproliferative activity against human MV4-11 cells assessed as growth inhibition at 0.4 uM measured after 72 hrs in presence of 1 uM of vorinostat by CellTiterGlo assay; assay type: functional; conditions: read-out: GI
MV4-11 [22] = test: Antiproliferative activity against human MV4-11 cells assessed as growth inhibition at 0.4 uM measured after 72 hrs in presence of 0.05 uM of vorinostat by CellTiterGlo assay; assay type: functional; conditions: read-out: GI
MV4-11 [23] = test: Induction of apoptosis in human MV4-11 cells assessed as late apoptotic cells at 200 nM incubated for 72 hrs by Annexin V/PI staining based flow cytometry analysis (reference value: 6.42%); assay type: functional
MV4-11 [24] = test: Antiproliferative activity against human MV4-11 cells assessed as growth inhibition at 0.5 uM measured after 72 hrs in presence of 0.5 uM of vorinostat by CellTiterGlo assay; assay type: functional; conditions: read-out: GI
MV4-11 [25] = test: Antiproliferative activity against human MV4-11 cells assessed as growth inhibition at 2 uM measured after 72 hrs in presence of 0.1 uM of vorinostat by CellTiterGlo assay; assay type: functional; conditions: read-out: GI
MV4-11 [26] = test: Induction of apoptosis in human MV4-11 cells assessed as necrotic cells at 400 nM incubated for 72 hrs in presence of vorinostat by Annexin V/PI staining based flow cytometry analysis (reference value: 2.61%); assay type: functional
MV4-11 [27] = test: Antiproliferative activity against human MV4-11 cells assessed as growth inhibition at 2 uM measured after 72 hrs in presence of 1 uM of vorinostat by CellTiterGlo assay; assay type: functional; conditions: read-out: GI
MV4-11 [28] = test: Induction of apoptosis in human MV4-11 cells assessed as late apoptotic cells at 100 nmol/L incubated for 72 hrs by Annexin V/PI staining based flow cytometry analysis (reference value: 5.14%); assay type: functional
MV4-11 [29] = test: Induction of apoptosis in human MV4-11 cells assessed as necrotic cells at 50 nmol/L incubated for 72 hrs by Annexin V/PI staining based flow cytometry analysis (reference value: 0.46%); assay type: functional
MOLM-13 = test: cells; assay type: functional, cell-based; conditions: Homo sapiens, MOLM-13, 72 h
Description: Antiproliferative activity against human MOLM-13 cells assessed as inhibition of cell growth measured after 72 hrs by CellTiterGlo assay

[30] = target: Histone-lysine N-methyltransferase 2A (Homo sapiens, UniProt Q03164); test: Inhibition of MLL1 (unknown origin) by fluorescence based assay
Sequence of Histone-lysine N-methyltransferase 2A (Q03164 1-2718 limits assumed): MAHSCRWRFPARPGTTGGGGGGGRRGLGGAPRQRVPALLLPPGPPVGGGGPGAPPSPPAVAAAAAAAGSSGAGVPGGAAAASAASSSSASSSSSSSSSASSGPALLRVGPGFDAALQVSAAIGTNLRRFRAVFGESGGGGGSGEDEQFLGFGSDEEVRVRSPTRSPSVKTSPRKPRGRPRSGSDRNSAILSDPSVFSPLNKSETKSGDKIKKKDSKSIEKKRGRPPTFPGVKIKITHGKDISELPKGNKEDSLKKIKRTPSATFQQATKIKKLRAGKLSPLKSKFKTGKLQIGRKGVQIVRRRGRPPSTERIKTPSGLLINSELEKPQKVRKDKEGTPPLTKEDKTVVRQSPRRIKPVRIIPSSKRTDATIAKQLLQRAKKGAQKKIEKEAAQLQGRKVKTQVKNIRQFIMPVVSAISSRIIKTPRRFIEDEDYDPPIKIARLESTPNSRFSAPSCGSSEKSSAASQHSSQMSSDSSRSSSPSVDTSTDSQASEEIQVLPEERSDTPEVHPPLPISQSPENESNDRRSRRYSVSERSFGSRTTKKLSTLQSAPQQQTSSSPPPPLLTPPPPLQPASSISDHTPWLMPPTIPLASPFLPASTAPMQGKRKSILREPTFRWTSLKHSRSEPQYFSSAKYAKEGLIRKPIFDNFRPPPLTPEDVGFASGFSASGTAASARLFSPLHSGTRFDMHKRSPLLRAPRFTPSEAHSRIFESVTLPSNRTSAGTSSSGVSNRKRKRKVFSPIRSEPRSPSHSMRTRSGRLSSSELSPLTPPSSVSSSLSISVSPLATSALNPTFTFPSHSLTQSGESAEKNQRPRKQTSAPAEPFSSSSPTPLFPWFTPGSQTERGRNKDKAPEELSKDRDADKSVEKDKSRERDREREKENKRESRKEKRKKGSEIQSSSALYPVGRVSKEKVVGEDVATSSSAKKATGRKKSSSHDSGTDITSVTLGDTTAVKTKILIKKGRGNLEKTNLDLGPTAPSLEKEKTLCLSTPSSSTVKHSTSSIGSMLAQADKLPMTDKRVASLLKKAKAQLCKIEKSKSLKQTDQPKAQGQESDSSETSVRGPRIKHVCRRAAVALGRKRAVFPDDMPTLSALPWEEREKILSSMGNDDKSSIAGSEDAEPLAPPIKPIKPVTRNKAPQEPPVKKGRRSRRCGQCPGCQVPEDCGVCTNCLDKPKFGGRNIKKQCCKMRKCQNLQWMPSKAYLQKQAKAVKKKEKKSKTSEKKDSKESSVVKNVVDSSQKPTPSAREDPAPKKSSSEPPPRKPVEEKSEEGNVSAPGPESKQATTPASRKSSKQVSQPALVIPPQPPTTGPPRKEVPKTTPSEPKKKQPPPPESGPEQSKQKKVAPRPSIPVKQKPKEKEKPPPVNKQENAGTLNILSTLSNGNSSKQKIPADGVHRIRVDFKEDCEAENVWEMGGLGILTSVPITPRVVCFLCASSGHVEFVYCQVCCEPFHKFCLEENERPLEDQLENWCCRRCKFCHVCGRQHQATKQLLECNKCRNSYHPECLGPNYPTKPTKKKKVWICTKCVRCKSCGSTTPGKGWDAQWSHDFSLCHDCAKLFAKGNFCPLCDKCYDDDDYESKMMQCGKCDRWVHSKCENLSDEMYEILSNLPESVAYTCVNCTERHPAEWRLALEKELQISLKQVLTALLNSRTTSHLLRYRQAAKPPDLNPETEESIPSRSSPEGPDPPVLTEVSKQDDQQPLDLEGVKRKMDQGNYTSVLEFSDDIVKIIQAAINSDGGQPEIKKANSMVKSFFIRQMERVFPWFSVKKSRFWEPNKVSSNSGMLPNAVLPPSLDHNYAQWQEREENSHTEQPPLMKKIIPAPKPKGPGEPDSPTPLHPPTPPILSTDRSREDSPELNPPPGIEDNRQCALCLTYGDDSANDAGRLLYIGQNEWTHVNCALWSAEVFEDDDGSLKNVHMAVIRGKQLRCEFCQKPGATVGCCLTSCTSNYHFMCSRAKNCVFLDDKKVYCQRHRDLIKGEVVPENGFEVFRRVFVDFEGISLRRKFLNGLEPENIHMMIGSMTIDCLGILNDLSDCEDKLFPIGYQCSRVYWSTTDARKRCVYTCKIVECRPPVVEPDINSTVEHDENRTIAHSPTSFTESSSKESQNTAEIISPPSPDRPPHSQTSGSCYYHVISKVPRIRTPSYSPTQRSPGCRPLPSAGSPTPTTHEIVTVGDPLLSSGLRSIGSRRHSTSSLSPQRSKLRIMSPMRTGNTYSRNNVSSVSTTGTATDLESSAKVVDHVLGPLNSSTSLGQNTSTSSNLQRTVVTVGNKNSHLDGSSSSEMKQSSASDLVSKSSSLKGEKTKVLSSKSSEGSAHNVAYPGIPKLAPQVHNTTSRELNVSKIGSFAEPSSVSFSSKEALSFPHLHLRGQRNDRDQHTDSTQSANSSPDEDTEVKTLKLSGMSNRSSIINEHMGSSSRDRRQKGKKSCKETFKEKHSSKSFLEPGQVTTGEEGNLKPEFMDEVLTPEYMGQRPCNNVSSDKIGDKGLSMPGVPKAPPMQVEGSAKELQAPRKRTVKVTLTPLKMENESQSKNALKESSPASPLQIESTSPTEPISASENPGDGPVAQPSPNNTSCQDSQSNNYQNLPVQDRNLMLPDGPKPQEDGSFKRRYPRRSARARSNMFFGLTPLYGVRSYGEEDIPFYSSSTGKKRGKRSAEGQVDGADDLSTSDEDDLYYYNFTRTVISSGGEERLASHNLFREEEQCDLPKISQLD
Sequence of Histone-lysine N-methyltransferase 2A (Q03164 2719-3969 limits assumed): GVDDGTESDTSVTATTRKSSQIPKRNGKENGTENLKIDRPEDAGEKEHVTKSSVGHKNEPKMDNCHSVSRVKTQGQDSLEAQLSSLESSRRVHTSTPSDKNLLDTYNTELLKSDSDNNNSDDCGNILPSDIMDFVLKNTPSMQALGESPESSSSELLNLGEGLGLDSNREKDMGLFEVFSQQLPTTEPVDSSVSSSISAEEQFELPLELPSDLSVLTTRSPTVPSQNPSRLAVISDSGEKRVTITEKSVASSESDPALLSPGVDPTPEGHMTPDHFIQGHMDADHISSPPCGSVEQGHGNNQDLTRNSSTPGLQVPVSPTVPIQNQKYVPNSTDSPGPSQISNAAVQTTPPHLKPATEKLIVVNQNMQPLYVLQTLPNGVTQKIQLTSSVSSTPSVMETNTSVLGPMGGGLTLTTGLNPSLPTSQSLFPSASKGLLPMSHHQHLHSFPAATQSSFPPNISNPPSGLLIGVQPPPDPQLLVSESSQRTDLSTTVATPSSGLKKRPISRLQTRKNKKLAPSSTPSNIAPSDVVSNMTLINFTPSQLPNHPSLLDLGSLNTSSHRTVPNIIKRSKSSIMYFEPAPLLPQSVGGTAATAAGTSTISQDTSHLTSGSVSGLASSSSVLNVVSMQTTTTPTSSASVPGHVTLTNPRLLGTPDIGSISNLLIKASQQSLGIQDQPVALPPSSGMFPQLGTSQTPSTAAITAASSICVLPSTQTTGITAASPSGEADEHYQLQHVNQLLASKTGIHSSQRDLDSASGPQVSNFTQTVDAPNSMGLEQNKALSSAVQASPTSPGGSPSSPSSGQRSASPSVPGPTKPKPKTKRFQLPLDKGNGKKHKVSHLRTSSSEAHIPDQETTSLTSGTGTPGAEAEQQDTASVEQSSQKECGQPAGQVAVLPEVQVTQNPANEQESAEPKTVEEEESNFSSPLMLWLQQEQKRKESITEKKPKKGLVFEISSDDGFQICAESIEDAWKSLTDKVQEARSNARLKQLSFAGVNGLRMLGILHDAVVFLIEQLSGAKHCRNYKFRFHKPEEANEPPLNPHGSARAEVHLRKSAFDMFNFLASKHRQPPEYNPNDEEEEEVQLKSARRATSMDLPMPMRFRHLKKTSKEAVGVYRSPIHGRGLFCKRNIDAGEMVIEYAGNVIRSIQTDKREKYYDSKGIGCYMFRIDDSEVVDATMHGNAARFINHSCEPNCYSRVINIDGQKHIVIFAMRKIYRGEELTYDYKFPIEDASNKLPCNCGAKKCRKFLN

MV4-11 [31] = test: Antitumor activity against human MV4-11 cells xenografted in mouse assessed as tumor growth inhibition at 10 mg/kg, ip administered daily for 17 days; assay type: functional; conditions: MV4-11, 408 h, time 17 day, read-out: TGI
[32] = target: Histone-lysine N-methyltransferase 2A/WDR5 (Homo sapiens, UniProt P61964); test: Inhibition of MLL1/WDR5 (unknown origin) protein-protein interaction incubated for 2 hrs by FP analysis; assay type: protein assay
Histone deacetylase 4 = Histone deacetylase 4 (Homo sapiens, UniProt P56524); test: Inhibition of HDAC4 (unknown origin) by fluorescence based assay
Sequence of Histone deacetylase 4 (P56524 whole entry): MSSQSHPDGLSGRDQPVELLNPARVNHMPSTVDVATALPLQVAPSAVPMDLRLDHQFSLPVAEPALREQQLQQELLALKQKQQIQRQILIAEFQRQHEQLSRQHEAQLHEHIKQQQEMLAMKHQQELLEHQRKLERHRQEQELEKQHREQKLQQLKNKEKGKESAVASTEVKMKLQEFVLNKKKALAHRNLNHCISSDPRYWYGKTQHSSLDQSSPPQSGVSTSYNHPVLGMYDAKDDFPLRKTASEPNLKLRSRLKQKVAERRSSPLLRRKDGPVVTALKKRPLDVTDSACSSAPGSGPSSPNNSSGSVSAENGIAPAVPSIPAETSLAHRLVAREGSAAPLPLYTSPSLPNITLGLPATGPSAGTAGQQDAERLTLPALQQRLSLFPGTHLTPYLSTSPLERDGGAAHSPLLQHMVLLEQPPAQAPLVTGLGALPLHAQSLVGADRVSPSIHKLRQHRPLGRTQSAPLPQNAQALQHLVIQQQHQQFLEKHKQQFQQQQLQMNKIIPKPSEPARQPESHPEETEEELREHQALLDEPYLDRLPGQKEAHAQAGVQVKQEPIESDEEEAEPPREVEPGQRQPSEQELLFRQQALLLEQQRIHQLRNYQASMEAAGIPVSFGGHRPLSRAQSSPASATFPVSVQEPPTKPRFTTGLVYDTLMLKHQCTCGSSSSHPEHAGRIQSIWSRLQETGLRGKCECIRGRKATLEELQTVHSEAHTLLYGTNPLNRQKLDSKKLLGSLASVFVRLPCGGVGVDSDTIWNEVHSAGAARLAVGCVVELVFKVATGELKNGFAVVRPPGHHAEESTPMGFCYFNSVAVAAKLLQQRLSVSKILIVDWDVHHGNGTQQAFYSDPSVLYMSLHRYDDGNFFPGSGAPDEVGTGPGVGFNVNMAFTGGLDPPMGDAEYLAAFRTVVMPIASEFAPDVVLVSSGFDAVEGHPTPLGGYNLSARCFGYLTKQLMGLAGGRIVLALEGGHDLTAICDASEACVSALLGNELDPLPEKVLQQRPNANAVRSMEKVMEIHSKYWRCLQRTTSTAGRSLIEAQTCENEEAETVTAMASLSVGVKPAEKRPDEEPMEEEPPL

[33] = Toxicity in mouse implanted in human MV4-11 cells assessed as lung damage at 10 to 30 mg/kg, ip administered daily for 17 days by H and E staining based analysis; assay type: organism-based; conditions: in vivo, 408 h, dose 10-30 mg/kg, time 17 day

Cc1c(F)c(N)cc(C(=O)Nc2cc(-c3ccc(C(=O)N4CCOCC4)cc3)ccc2N2CCN(C)CC2)c1Cl
inhibition of growth at 0.2 µM (MV4-11 [1]): 48%
inhibition of growth at 0.05 µM (MV4-11 [2]): 30.1%
inhibition of growth at 0.4 µM (MV4-11 [3]): 73.3%
inhibition of growth at 0.05 µM (MV4-11 [4]): 86.7%
inhibition of growth at 0.2 µM (MV4-11 [5]): 60.3%
inhibition of growth at 2 µM (MV4-11 [6]): 95.2%
inhibition of growth at 0.4 µM (MV4-11 [7]): 55%
Activity (MV4-11 [8]): 54.05%
inhibition of growth at 0.5 µM (MV4-11 [9]): 27.5%
inhibition of growth at 1 µM (MV4-11 [10]): 61.6%
Activity (MV4-11 [11]): 19.27%
Activity (MV4-11 [12]): 16.81%
inhibition of growth at 0.1 µM (MV4-11 [13]): 73.6%
inhibition of growth at 0.2 µM (MV4-11 [14]): 88.2%
inhibition of growth at 0.4 µM (MV4-11 [15]): 62.6%
inhibition of growth at 0.2 µM (MV4-11 [16]): 45%
inhibition of growth at 0.4 µM (MV4-11 [17]): 59.3%
inhibition of growth at 0.1 µM (MV4-11 [18]): 42.8%
inhibition of growth at 0.05 µM (MV4-11 [19]): 17.5%
inhibition of growth at 1 µM (MV4-11 [20]): 52.1%
inhibition of growth at 0.4 µM (MV4-11 [21]): 90.8%
inhibition of growth at 0.4 µM (MV4-11 [22]): 40%
Activity (MV4-11 [23]): 1.08%
inhibition of growth at 0.5 µM (MV4-11 [24]): 73.2%
inhibition of growth at 2 µM (MV4-11 [25]): 68.6%
Activity (MV4-11 [26]): 3.05%
inhibition of growth at 2 µM (MV4-11 [27]): 95.6%

Cc1c(F)c(N)cc(C(=O)Nc2cc(-c3ccc(C(=O)NCc4ccc(/C=C/C(=O)NO)cc4)cc3)ccc2N2CCN(C)CC2)c1Cl
Activity (MV4-11 [28]): 7.14%
Activity (MV4-11 [29]): 2.44%
IC50 (MOLM-13): 70 nM
IC50 [30]: 131 nM
inhibition in vivo at 10 mg/kg (MV4-11 [31]): 42.3%
IC50 [32]: 42 nM
IC50 (Histone deacetylase 4): 4690 nM
Activity [33]: Non-toxic
